Converted amounts (≈) assume the structure as drawn. The source made the active and inactive calls. No cut-off for these calls is given here.
Tests used:
[1] = Toxicity in Galleria mellonella assessed as survival rate at 10 mg/kg observed after 7 days; assay type: organism-based; conditions: in vivo, time 7 day
Enterococcus faecalis [2] = assay: Antibacterial activity against Enterococcus faecalis clinical isolate 13; assay type: functional
Staphylococcus aureus [3] = assay: Antibacterial activity against methicillin resistant Staphylococcus aureus clinical isolate 003 infected in cyclophosphamide immunosuppressed mouse model of skin wound infection assessed as reduction in bacterial load in wound at 5 mg/kg administered for 7 days and measured on day 8 (reference value: 1.6 x 10^8 CFU); assay type: functional; conditions: time 8 day
Staphylococcus aureus [4] = assay: Antibiofilm activity in methicillin resistant Staphylococcus aureus clinical isolate 003 by crystal violet staining based analysis; assay type: functional
Enterococcus faecalis [5] = assay: Antibiofilm activity in multidrug resistant Enterococcus faecalis ATCC 51299 by crystal violet staining based analysis; assay type: functional
Staphylococcus aureus [6] = assay: Antibacterial activity against methicillin resistant Staphylococcus aureus clinical isolate 003 infected in cyclophosphamide immunosuppressed mouse model of skin wound infection assessed as wound healing at 5 mg/kg administered for 7 days and measured on day 8; assay type: functional, organism-based; conditions: time 8.0 day
Enterococcus faecalis [7] = assay: Antibacterial activity against multidrug resistant Enterococcus faecalis ATCC 51299; assay type: functional
Staphylococcus aureus [8] = assay: Antibacterial activity against Staphylococcus aureus clinical isolate 29; assay type: functional
Enterococcus faecalis [9] = assay: Antibacterial activity against Enterococcus faecalis clinical isolate 7; assay type: functional
Staphylococcus aureus [10] = assay: Antibacterial activity against Staphylococcus aureus clinical isolate 31; assay type: functional
Staphylococcus aureus [11] = assay: Antibacterial activity against methicillin resistant Staphylococcus aureus clinical isolate 011; assay type: functional
Staphylococcus aureus [12] = assay: Antibacterial activity against methicillin resistant Staphylococcus aureus clinical isolate 031; assay type: functional
Staphylococcus aureus [13] = assay: Antibacterial activity against methicillin resistant Staphylococcus aureus clinical isolate 003; assay type: functional
Enterococcus faecalis [14] = assay: Antibacterial activity against multidrug resistant Enterococcus faecalis ATCC 51299 infected in cyclophosphamide immunosuppressed mouse model of abdominal infection assessed as eradication of bacterial colonies in spleen at 5 mg/kg measured after 60 hrs relative to control; assay type: functional
Enterococcus faecalis [15] = assay: Antibacterial activity against multidrug resistant Enterococcus faecalis ATCC 51299 infected in cyclophosphamide immunosuppressed mouse model of abdominal infection assessed as eradication of bacterial colonies in ascites at 5 mg/kg measured after 60 hrs relative to control; assay type: functional
Enterococcus faecalis [16] = assay: Antibacterial activity against multidrug resistant Enterococcus faecalis ATCC 51299 assessed as resistance development by measuring fold increase in MIC measured after 20 passages; assay type: functional
Enterococcus faecalis [17] = assay: Antibacterial activity against multidrug resistant Enterococcus faecalis ATCC 51299 infected in cyclophosphamide immunosuppressed mouse model of abdominal infection assessed as eradication of bacterial colonies in liver at 5 mg/kg measured after 60 hrs relative to control; assay type: functional
Enterococcus faecalis [18] = assay: Antibacterial activity against multidrug resistant Enterococcus faecalis ATCC 51299 infected in cyclophosphamide immunosuppressed mouse model of abdominal infection assessed as eradication of bacterial colonies in kidney at 5 mg/kg measured after 60 hrs relative to control; assay type: functional

SMILES	survival at 168 h [1] [%]	MIC (Enterococcus faecalis [2]) [µg/mL]	Activity (Staphylococcus aureus [3])	MBEC (Staphylococcus aureus [4]) [µg/mL]	MBEC (Enterococcus faecalis [5]) [µg/mL]	Activity (Staphylococcus aureus [6])	MIC (Enterococcus faecalis [7]) [µg/mL]	MIC (Staphylococcus aureus [8]) [µg/mL]	MIC (Enterococcus faecalis [9]) [µg/mL]	MIC (Staphylococcus aureus [10]) [µg/mL]	MIC (Staphylococcus aureus [11]) [µg/mL]	MIC (Staphylococcus aureus [12]) [µg/mL]	MIC (Staphylococcus aureus [13]) [µg/mL]	Activity (Enterococcus faecalis [14]) [%]	Activity (Enterococcus faecalis [15]) [%]	fold change (FC) (Enterococcus faecalis [16])	Activity (Enterococcus faecalis [17]) [%]	Activity (Enterococcus faecalis [18]) [%]
CN[C@H](CC(C)C)C(=O)N[C@H]1C(=O)N[C@@H](CC(N)=O)C(=O)N[C@H]2C(=O)N[C@H]3C(=O)N[C@H](C(=O)N[C@H](C(=O)O)c4cc(O)cc(O)c4-c4cc3ccc4O)[C@H](O)c3ccc(c(Cl)c3)Oc3cc2cc(c3O[C@@H]2O[C@H](CO)[C@@H](O)[C@H](O)[C@H]2O[C@H]2C[C@](C)(N)[C@H](O)[C@H](C)O2)Oc2ccc(cc2Cl)[C@H]1O [VANCOMYCIN]	80	2 (≈ 1.38 µM)	5.1 10^6CFU	>256	>256	Active	> 128	–	–	–	–	–	–	–	–	–	–	–
CCCCCCc1c(-c2ccc(OCCCCNCc3ccc(C(F)(F)F)cc3)cc2OCCCCNCc2ccc(C(F)(F)F)cc2)oc2cc(OC)cc(O)c2c1=O	–	8 (≈ 9.49 µM)	–	–	–	–	16 (≈ 19 µM)	16 (≈ 19 µM)	32 (≈ 38 µM)	8 (≈ 9.49 µM)	8 (≈ 9.49 µM)	8 (≈ 9.49 µM)	16 (≈ 19 µM)	–	–	–	–	–
CCCCCCc1c(-c2ccc(OCCCCNC3CCCCC3)cc2OCCCCNC2CCCCC2)oc2cc(OC)cc(O)c2c1=O	–	1 (≈ 1.45 µM)	–	–	–	–	2 (≈ 2.89 µM)	1 (≈ 1.45 µM)	1 (≈ 1.45 µM)	2 (≈ 2.89 µM)	2 (≈ 2.89 µM)	4 (≈ 5.79 µM)	1 (≈ 1.45 µM)	–	–	–	–	–
CC1(C)S[C@@H]2[C@H](NC(=O)[C@H](N)c3ccccc3)C(=O)N2[C@H]1C(=O)O [AMPICILLIN]	–	2 (≈ 5.72 µM)	–	>256	>256	–	2 (≈ 5.72 µM)	2 (≈ 5.72 µM)	2 (≈ 5.72 µM)	2 (≈ 5.72 µM)	> 128	> 128	> 128	83.11	89.18	16	90.58	95.99
CCCCCCc1c(-c2ccc(OCCCCNCc3ccc(Cl)cc3)cc2OCCCCNCc2ccc(Cl)cc2)oc2cc(OC)cc(O)c2c1=O	–	32 (≈ 41.2 µM)	–	–	–	–	32 (≈ 41.2 µM)	32 (≈ 41.2 µM)	32 (≈ 41.2 µM)	16 (≈ 20.6 µM)	16 (≈ 20.6 µM)	32 (≈ 41.2 µM)	32 (≈ 41.2 µM)	–	–	–	–	–
CCCCCCc1c(-c2ccc(OCCCCN3CCCC(C)C3)cc2OCCCCN2CCCC(C)C2)oc2cc(OC)cc(O)c2c1=O (stereo not given)	–	2 (≈ 2.89 µM)	–	–	–	–	2 (≈ 2.89 µM)	2 (≈ 2.89 µM)	2 (≈ 2.89 µM)	2 (≈ 2.89 µM)	2 (≈ 2.89 µM)	2 (≈ 2.89 µM)	1 (≈ 1.45 µM)	–	–	–	–	–
CCCCCCc1c(-c2ccc(OCCCCNCC)cc2OCCCCNCC)oc2cc(OC)cc(O)c2c1=O	–	1 (≈ 1.72 µM)	–	–	–	–	2 (≈ 3.43 µM)	2 (≈ 3.43 µM)	2 (≈ 3.43 µM)	1 (≈ 1.72 µM)	2 (≈ 3.43 µM)	2 (≈ 3.43 µM)	1 (≈ 1.72 µM)	–	–	–	–	–
CCCCCCc1c(-c2ccc(OCCCCNCCCCCCCCN)cc2OCCCCNCCCCCCCCN)oc2cc(OC)cc(O)c2c1=O	–	1 (≈ 1.28 µM)	–	–	–	–	1 (≈ 1.28 µM)	1 (≈ 1.28 µM)	1 (≈ 1.28 µM)	0.5 (≈ 0.64 µM)	1 (≈ 1.28 µM)	1 (≈ 1.28 µM)	0.5 (≈ 0.64 µM)	–	–	–	–	–

Source: ChEMBL document CHEMBL5512659, “Structure optimizing of flavonoids against both MRSA and VRE” (Eur J Med Chem, 2024)
